Results on two compounds are retold here after article PMC3115495 (Bioorganic & medicinal chemistry letters, 2011).

The target of one assay is KOR-1 (Homo sapiens, UniProt P41145). Put plainly: ^125I-opioid saturation studies in KOR-1/CHO cells. In kind it is binding. As to conditions: at the highest concentrations of radioligands used.
Assay [1] concerns the target mu opioid receptor (MOR-1) (UniProt P42866). Briefly: radioligand binding.

Chain of KOR-1 (P41145 whole entry, species assumed): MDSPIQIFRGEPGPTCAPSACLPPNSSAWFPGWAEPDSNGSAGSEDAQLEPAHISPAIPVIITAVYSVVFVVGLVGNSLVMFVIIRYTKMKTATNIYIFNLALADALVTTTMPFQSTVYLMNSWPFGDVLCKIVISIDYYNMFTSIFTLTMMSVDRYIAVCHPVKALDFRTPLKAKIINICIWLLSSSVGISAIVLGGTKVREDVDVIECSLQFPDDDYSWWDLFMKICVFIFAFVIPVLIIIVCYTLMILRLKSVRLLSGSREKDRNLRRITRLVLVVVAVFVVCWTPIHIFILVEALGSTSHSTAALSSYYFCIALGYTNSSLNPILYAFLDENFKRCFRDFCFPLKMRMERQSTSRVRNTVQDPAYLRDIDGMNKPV
Chain of mu opioid receptor (MOR-1) (P42866 whole entry): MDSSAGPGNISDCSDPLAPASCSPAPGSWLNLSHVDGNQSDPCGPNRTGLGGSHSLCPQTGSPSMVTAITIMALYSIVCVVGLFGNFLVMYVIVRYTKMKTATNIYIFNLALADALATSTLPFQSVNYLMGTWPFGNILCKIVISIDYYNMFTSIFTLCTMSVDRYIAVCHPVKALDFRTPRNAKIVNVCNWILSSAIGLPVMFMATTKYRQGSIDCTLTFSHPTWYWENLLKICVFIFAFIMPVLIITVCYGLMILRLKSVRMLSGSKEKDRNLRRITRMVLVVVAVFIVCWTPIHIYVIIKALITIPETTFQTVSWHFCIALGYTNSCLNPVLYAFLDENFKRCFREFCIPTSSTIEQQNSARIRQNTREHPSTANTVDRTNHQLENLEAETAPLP

As for `CN1CC[C@]23c4c5ccc(O)c4O[C@H]2[C@H](NC(=O)c2cccc([125I])c2)CC[C@@]3(O)[C@H]1C5` [^125IBOxyA (20)], the “Specific binding in KOR-1/CHO cells” value on KOR-1 is listed as “No specific”.

In turn, “[-DAla^2,MePhe^4,Gly(ol)^5]enkephalin (peptide)” displayed a Ki in assay [1] of 1.55 nM.
